In patent US7875638B2, “Synthesis of epothilones, intermediates thereto, analogues and uses thereof” (Sloan-Kettering Institute for Cancer Research, priority 2002, dated 2011):
Values joined by “and” are separate entries in the source; they are usually repeats but may differ in a detail not shown here. Equal values may be shown once. Read-outs that look alike come from different tables or passages of the source. Marks after values point to notes of the source that are not given here.

How the values were obtained:
[1] = tested on: RPMI-8226 (human multiple myeloma cell line); assay: Global gene expression (Affymetrix chip AU133 2.0); assay type: cell-based
[2] = tested on: human mammary carcinoma MX-1 xenograft; assay: MX-1 xenograft in nude mice; settings: for Body weight on the 16th day after treatment, % of the pretreatment control: Q2Dx6
[3] = tested on: Ovcar-3; assay: XTT cell growth inhibition, Ovcar-3; assay type: cell-based; settings: Homo sapiens, OVCAR-3; Ovarian Ca; XTT tetrazonium assay; read-out: IC50 (nM), Ovcar-3
[4] = tested on: RPMI8226 myeloma cell lines; assay: Cell cycle analysis (propidium iodide DNA staining), RPMI8226; assay type: cell-based, human; settings: 31.25 nM
Source text: RPMI8226 myeloma cell lines were used.

[5] = tested on: OPM-2; assay: XTT cell growth inhibition, OPM-2; assay type: cell-based; settings: Homo sapiens, OPM-2; Myeloma; XTT tetrazonium assay; read-out: IC50 (nM), OPM-2
[6] = tested on: primary CD138 MM cells; assay: Apoptosis of primary myeloma cells; assay type: cell-based, human; settings: cells obtained from patient marrow
[7] = tested on: RPMI8226 myeloma cell line; assay: Annexin V staining, RPMI8226; assay type: cell-based, human; settings: 24 hours treatment
Source text: In early apoptotic cells, the membrance phospholipids phosphatidylserine (PS) is translocated from the inner to the outer leaflet of the plasma membrane, thereby exposing PS to the external cellular environment. Annexin V is a 35-36 kD Ca^+2 dependent phospholipid-binding protein that has a high affinity for PS, and binds to cells with exposed PS. In conjunction with a vital dye such as 7-amino-actinomycin (7-AAD) staining dead cells, this assay allows the identification of early apoptotic cells.

[8] = tested on: SKOV3; assay: XTT cell growth inhibition, SKOV3; assay type: cell-based; settings: Homo sapiens, SK-OV-3; Ovarian Ca; XTT tetrazonium assay; read-out: IC50 (nM), SKOV3
[9] = tested on: CAG myeloma cell lines; assay: Cell cycle analysis (propidium iodide DNA staining), CAG; assay type: cell-based, human; settings: 31.25 nM
Source text: CAG myeloma cell lines were used.

[10] = tested on: myeloma cell lines (RPMI8226, CAG); assay: XTT cell proliferation, myeloma cell lines; assay type: cell-based, human
[11] = tested on: human mammary carcinoma MX-1 xenograft; settings: mouse, in vivo
[12] = tested on: human T-cell lymphoblastic leukemia CCRF-CEM/Taxol xenograft; assay: CCRF-CEM/Taxol xenograft in nude mice; assay type: in vivo
[13] = tested on: CAG; assay: XTT cell growth inhibition, CAG; assay type: cell-based; settings: Homo sapiens; Myeloma; XTT tetrazonium assay; read-out: IC50 (nM), CAG
[14] = 18 hr gene difference, Fludelone vs dEpoB treated cells

SMILES: C/C(=C\c1csc(C)n1)[C@@H]1C/C=C(/C(F)(F)F)C/C=C/[C@H](C)[C@H](O)[C@@H](C)C(=O)C(C)(C)[C@@H](O)CC(=O)O1 [Compound 29, 26-trifluoro-trans-9,10-dehydro-12,13-desoxyepothilone B]
- Fold change in expression, TCS2 ([1]; 18 h): +2.30 fold
- Fold change in expression, TMEM1 ([1]; 18 h): +2.14 fold
- Fold change in expression, TRA2A ([1]; 18 h): +3.03 fold
- Fold change in expression, TRIO ([1]; 18 h): +4.29 fold
- Fold change in expression, VEZATIN ([1]; 18 h): +2.00 fold
- Fold change in expression, ZF (HCF-binding transcription factor) ([1]; 18 h): −6.50 fold
- Fold change in expression, ZFY ([1]; 18 h): +2.14 fold
- Fold change, CEB1 ([1]; 18 h): −2.00 fold
- Fold change, DUSP4 ([1]; 18 h): −2.14 fold
- Fold change, HMT-1 ([1]; 18 h): +11.3 fold
- Fold change, IFIT1 ([1]; 18 h): −2.00 fold
- Fold change, OAS2 ([1]; 18 h): −2.00 fold
- Fold change, PLSCR1 ([1]; 18 h): −2.00 fold
- Fold change, PPAP2C ([1]; 18 h): −2.14 fold
- Fold change, TRIM22 ([1]; 18 h): −2.00 fold
- Fold change, GIP3 [1, 14]: −5.28 fold
- Fold change, IFI 27 [1, 14]: −5.28 fold
- Fold change, IFITM1 [1, 14]: −3.25 fold
- Fold change, MX1 [1, 14]: −2.30 fold
- Fold change in expression, G1P3 ([1]; 18 hrs, ×10 IC50 dose, vs control): −3.73 fold
- Body weight gain during the last three doses ([2]; 10 mg/kg, Q2DX12): 6%
- Maximal body weight decrease ([2]; 10 mg/kg, Q2DX12): 12%
- Tumor free after Q2Dx6 6 hr-iv. infusion (mice) ([2]; 20 mg/kg): four out of four
- Therapeutic outcome in MX-1 xenograft model ([2]; 20 mg/kg and 30 mg/kg, Q2Dx6, 6 hour infusions): curative
- Time for body weight to return to pretreatment control level after suspension of treatment ([2]; 20 mg/kg or 30 mg/kg Q2Dx6, i.v.-6 hr infusion): 12 to 18 days
- Body weight on the 16th day after treatment, % of the pretreatment control ([2]; 20 mg/kg): 109%
- Reappearance of the tumor on the 20th day after stopping treatment ([2]; 20 mg/kg, Q2Dx6, 6 hour infusion): no reappearance
- Tumor reappearance on 27th day after stopping treatment (mice) ([2]; 20 mg/kg, Q2Dx6, 6 hr iv infusion): 2 out of 4
- Tumor reappearance on 27th day after stopping treatment (mice) ([2]; 20 mg/kg, Q2Dx6, 6 hr iv infusion, listed as 26-trifluoro-9,10-dehydro-12,13-dexoxy-epothilone B): 2/4
- Transient drop in body weight ([2]; 20 mg/kg, Q2Dx6, 6 hr. iv infusion): up to 26%
- Decrease in body weight without lethality ([2]; 30 mg/kg): 27%
- Body weight on the 16th day after treatment, % of the pretreatment control ([2]; 30 mg/kg): 98%
- Tumor disappearance earlier than the 20 mg/kg dosage ([2]; 30 mg/kg, Q2Dx6, 6 hour iv infusion): 2 to 3 days
- Relapse after suspension of treatment ([2]; 30 mg/kg, Q2Dx6, 6 hr iv infusion): absence of any relapse for over two months
- Maximal tolerated dose ([2]; Q2Dx6, 6 hour infusions): ~30 mg/kg
- Cell kill ([2]; assuming a tumor doubling time of 4 days): > 8.5 log
- Tumor relapse after cessation of treatment ([2]; extra large MX-1, 25 mg/kg Q3Dx5 then Q3Dx4): No relapse was observed on D180
- Relapse (49 days after stopping treatment) ([2]; female nude mice, large MX-1, 30 mg/kg orally): no relapse on D115
- Tumor disappearance ([2]; female nude mice, large MX-1, 30 mg/kg orally Q2Dx7 then Q2Dx9): All three mice's tumor disappeared on D40, 45 and 48
- Doses required for MX-1 tumor disappearance ([2]; mouse, in vivo): nine
- Duration of MX-1 tumor disappearance ([2]; mouse, in vivo): 64 days
- Mice relapsed on day 10 after suspension of treatment ([2]; mouse, in vivo): 0/4
- Mouse tumors disappeared, large MX-1 tumors (0.5 g) ([2]; mouse, in vivo): 4/4
- Relapse after suspension of treatment ([2]; mouse, in vivo): no relapse after 62 days
- Tumor disappeared during the resting period (mice) ([2]; mouse, in vivo): 2 out of 5
- Tumor free after Q2Dx6 6 hr-iv. infusion (mice) ([2]; mouse, in vivo): 4/4
- Tumor reappeared on day 10 after administration (mice) ([2]; mouse, in vivo): 0/4^[b]
- Tumor relapse after cessation of treatment ([2]; mouse, in vivo): no tumor relapse in all 5 animals on D165
- Tumor shrinkage during the resting period of 9 days (D34-D43) ([2]; mouse, in vivo): > 99.3%
- Tumor shrinkage ([2]; mouse, in vivo, iv, 25 mg/kg): > 97.4%
- Tumor disappearance (mice) ([2]; mouse, in vivo, po, 30 mg/kg): 2 out of 4
- Tumor disappearance after additional two doses (mice) ([2]; mouse, in vivo, po, 30 mg/kg): 4 out of 4
- Tumor free following the cessation of treatment ([2]; mouse, in vivo, listed as 26-trifluoro-9,10-trans-dehdyro-epothilone D): 3.8 months
- Tumor free following the cessation of treatment ([2]; mouse, in vivo, listed as Fludelone): 4.3 months
- IC50 [3]: 1.1 ± 0.4 nM
- Cell cycle arrest [4]: absolutely blocked cell cycle at G2M phase
- IC50 [5]: 8.2 ± 2.2 nM
- Tumor apoptosis within 24 hrs [6]: induced tumor apoptosis within 24 hrs
- Apoptosis (Annexin V / 7-AAD) [7]: majority of cell either enter apoptosis or are dead
- IC50 [8]: 1.6 ± 0.5 nM
- Cell cycle arrest [9]: absolutely blocked cell cycle at G2M phase
- Potency relative to dEpoB on MM cell lines [10]: ~5 fold
- IC50 ([10]; Homo sapiens, RPMI-8226, read-out: IC50, myeloma cell lines (RPMI8226, CAG)): 7.6 to 36.7 nM
- Maximal body weight decrease [11]: Only minor loss of body weight
- Maximal drop of the body weight ([11]; po, 30 mg/kg): 15%
- Final tumor suppression on D34 ([12]; 15 mg/kg): 98.8%
- Tumor disappearance (mice) ([12]; 15 mg/kg, 6 hr-i.v. infusion, Q2Dx7 then Q2Dx5): 1 out of 4
- Tumor disappearance (mice) ([12]; 15 mg/kg, 6 hr-i.v. infusion, Q2Dx7 then Q2Dx5, listed as 26-F3-9,10-deH-dEpo B): 1/3
- Tumor disappearance (mice) ([12]; 15 mg/kg, 6 hr-i.v. infusion, Q2Dx7 then Q2Dx5, listed as Fludelone): 1/3
- Tumor disappearance (mice) ([12]; 30 mg/kg Q2Dx7, 6 hr-i.v. infusion (first cycle)): 2 out of 4
- Tumor disappearance (mice) ([12]; 30 mg/kg, 6 hr-i.v. infusion, Q2Dx7 then Q2Dx5, listed as 26-F3-9,10-deH-dEpo B): ¾
- Tumor disappearance (mice) ([12]; 30 mg/kg, 6 hr-i.v. infusion, Q2Dx7 then Q2Dx5, listed as Fludelone): 3 out of 4 and 3/4
- Final tumor suppression ([12]; 30 mg/kg, Q2Dx7 then Q2Dx5): 99.8%
- IC50 [13]: 12 ± 1.8 nM
